Laboratory results from patent US10550095B2, “Cancerous cell growth inhibiting compounds” (WISYS TECHNOLOGY FOUNDATION, INC., priority 2016, dated 2020).
Values joined by “and” are separate entries in the source; they are usually repeats but may differ in a detail not shown here. Equal values may be shown once. “Also recorded” adds a separate entry of the source.

Columns and labels:
zebrafish embryos [1] = assay: Inhibition of melanin synthesis in zebrafish embryos, treated 24-76 hpf (Protocol 1); type: in vivo; conditions: zebrafish embryos treated 24-76 hpf
Experimental: (§1) The testing protocols for these compounds are as follows: • a. […] The embryos were monitored and imaged throughout their development to track the development of melanin pigment relative to a control group to which water was administered (Protocol 1). • b. […] The embryos were again monitored and imaged throughout their development relative to a control group to which water was administered (Protocol 2). • c. Additionally, to test the ability of the pigment to recover after being treated with our drugs, all embryos were treated at 24 hpf with the chemicals until the 48 hpf or 64 hpf time period, then washed with water to remove the treatment. The embryos were again monitored and imaged throughout their development relative to a control group to which water was administered (Protocol 3).
(§2) The black pigment (or melanin) is very easy to observe in zebrafish. In brief, adult zebrafish are taken to breed embryos. Morphologically normal embryos of 24 hours post fertilization (hpf) stage were selected for incubation in the drugs from 24 to 76 hours. During the incubation, the embryos are monitored and imaged (see FIGS. 1 and 3) to track the development of melanin. […] To broaden the comparison with other skin-whitening products, this project can also test at least three other compounds, Kojic acid, Gallic acid and Haginin. […] In the meantime, the whole organism context also allows us to examine the toxicological profile, if any, of these compounds.

zebrafish embryos [2] = assay: Effect on existing melanin and/or melanocytes, embryos treated at 48 hpf (Protocol 2); type: in vivo
Experimental: (§3) The testing protocols for these compounds are as follows: • a. […] The embryos were monitored and imaged throughout their development to track the development of melanin pigment relative to a control group to which water was administered (Protocol 1). • b. To test the effects of the drugs on existing melanin and/or melanocytes, the embryos were treated with the chemicals at 48 hpf, after pigment had developed. The embryos were again monitored and imaged throughout their development relative to a control group to which water was administered (Protocol 2). • c. Additionally, to test the ability of the pigment to recover after being treated with our drugs, all embryos were treated at 24 hpf with the chemicals until the 48 hpf or 64 hpf time period, then washed with water to remove the treatment. The embryos were again monitored and imaged throughout their development relative to a control group to which water was administered (Protocol 3).
To test the effects of the drugs on existing melanin and/or melanocytes, the embryos were treated with the chemicals A11, MEK-I and PTU at 48 hpf, after pigment had developed. The embryos were again monitored and imaged throughout their development according to Protocol 2.

zebrafish embryos [3] = assay: Pigment recovery after compound withdrawal (Protocol 3); type: in vivo; conditions: treated 24-48 hpf or 24-64 hpf, then washed, by 72 hpf
Experimental: as §3
It has been reported that melanin usually reappears after the withdrawal of skin whitening products. […] The pigmentation was monitored closely for 48-72 hours. Similarly, this experiment was repeated at least three times to gain a reproducible result.

zebrafish embryos [4] = assay: Skin Lightening Efficacy of All Analogs on Zebrafish Embryos (Table 1); type: in vivo; conditions: concentration not given
Experimental: as §1, §2

B16-F10 melanoma cells [5] = assay: cells; type: cell-based
B16-F10 melanoma cells [6] = assay: Melanin in melanoma cells; type: cell-based, mouse; conditions: for Melanin: melanoma cells
Source text: (MEK-I is a known MEK inhibitor as a comparison purchased from Sigma): […]

[7] = tested on: primary human melanocytes; assay: Growth of normal melanocytes; type: cell-based
Experimental: These cells proliferate slowly making it difficult to gather enough cells for experiments with all the A11 analogs. […] In the second experiment, A7 and a few other compounds were evaluated. […] At 10 μM, FSK-03-92 caused near 80% lethality (comparing with the 20% kill by 10 μM FSK-03-92 on melanoma cells in FIG. 14).

[8] = tested on: transgenic melanoma zebrafish embryos; assay: Melanoma formation and recovery in transgenic melanoma zebrafish embryos; type: in vivo
Experimental: (§4) The intracellular signaling pathway that involves Raf and MEK is known to be the major pathway to regulate cell proliferation. Many current melanoma drugs such as cobimetinib works by inhibiting Raf or MEK. While they are effective in inhibiting melanoma growth, they exert different degrees of side effect on normal cells by inhibiting the Raf-MEK pathway. […] Also, with regard to FIG. 13, the compound SK-03-92 is shown to inhibit melanoma cell growth by approximately 10% at 10 μM and at 100% at 40 μM.

melanoma cells = assay: Mitotic index of melanoma cells (anti-phospho-histone H3 antibody); type: cell-based, mouse; conditions: anti-phospho-histone H3 (FIG. 16)
[9] = tested on: melanocytes in zebrafish embryos; assay: Mitotic index of melanocytes in zebrafish embryos; type: in vivo; conditions: zebrafish embryo (FIG. 17)
[10] = tested on: melanocytes in zebrafish embryos; assay: TUNEL assay, melanocyte apoptosis in normal and transgenic melanoma-forming zebrafish embryos; type: in vivo; conditions: normal and transgenic melanoma-forming embryos (FIGS. 18A-18B)
MAPK = assay: Western blot for phosphorylated MAPK in melanoma cells; type: cell-based, mouse; conditions: melanoma cells (FIG. 19A)
Source text: We wanted to further understand the molecular mechanism of A11 and its derivatives by examining the activities of MAPK, Akt, and PRPP pathways which regulate cell proliferation and cell death.
MAPK is involved in the major cell proliferation signaling pathway. In many cancer cells, MAPK is activated at high level by phosphorylation. Using the anti-phosphorylated-MAPK (p-MAPK) on western blot, it is very easy to understand the proliferation ability in cells. […] While the results are against our hypothesis and current understanding, it raises a very interesting mechanism of A11 which requires further investigation. […] The current understanding is that activated MAPK and Akt both lead to cell proliferation.

Akt = assay: Western blot for phosphorylated Akt in melanoma cells; type: cell-based, mouse; conditions: western blot (FIG. 19B)
MITF [11] = assay: Western blot for MITF protein level in B16-F10 cells; type: cell-based, mouse; conditions: western blot vs DMSO control (FIG. 21)
Source text: (§5) To understand how A11 inhibits melanoma proliferation, we examined the MITF expression level in A11-treated B16-F10 cells by western blot and RT-qPCR.

MITF [12] = assay: RT-qPCR of MITF (mit-f) in melanoma cells; type: cell-based, mouse
Source text: as §5
(§6) The results of several qPCR experiments using melanoma cells were compiled in FIG. 20. Pax3 and sox10 are genes determine the melanocyte precursors while mit-f is the specific transcription factor that initiates melanocyte differentiation. Dct and tyr genes are expressed in differentiated melanocytes. […] The decrease in magnitude is not significant likely due to the very heterogeneous cell types in melanoma.

Pax3 = assay: RT-qPCR of Pax3 in melanoma cells; type: cell-based, mouse
Source text: as §5, §6

[13] = tested on: DCT (dopachrome tautomerase); assay: RT-qPCR of DCT in melanoma cells; type: cell-based, mouse
Source text: as §5, §6

tyrosinase [14] = assay: RT-qPCR of tyrosinase in melanoma cells; type: cell-based, mouse
Source text: as §5, §6

[15] = tested on: dct-expressing cells (differentiated melanocytes); assay: In situ hybridization for the dct gene in zebrafish embryos; type: in vivo; conditions: zebrafish embryos (FIG. 22)
Source text: To further understand the mechanism of A11, we examined the development of melanocytes by in situ hybridization for the dct (dopachrome tautomerase) gene which is expressed in differentiated melanocytes.

tyrosinase [16] = assay: Effect on tyrosinase expression (FIG. 8)
Source text: FIG. 8 is a graph of the effects of various pigment reducing compositions on tyrosinase expression;
as §4

MEK = MEK activity (FIG. 12)
Source text: FIG. 12 are photo illustrations of MEK activity with exemplary embodiments of the human drug treatments of the present invention; and
as §4

COc1cc(O)cc(/C=C/Oc2ccccc2C)c1 [Analog A11, 2-Methylphenyl-E-(3-hydroxy-5-methoxy)-styryl Ether]
pigmentation inhibition (in words) (zebrafish embryos [1]): nearly complete pigmentation loss; also recorded: inhibits pigmentation formation | Pigmentation (zebrafish embryos [1]; 10 μM): < 5% | existing pigment remaining (zebrafish embryos [2]): 20% | pigmentation recovered after wash-off (zebrafish embryos [3]): 50% | pigmentation recovered after wash-off (zebrafish embryos [3]; listed as A-11): approximately 50% | Pigmentation (zebrafish embryos [4]): 10% | Average Melanoma growth (from the previous chart) (B16-F10 melanoma cells [5]; 2 μM): 86% | Average Melanoma growth (from the previous chart) (B16-F10 melanoma cells [5]; 10 μM): 88% | Average Melanoma growth (from the previous chart) (B16-F10 melanoma cells [5]; 20 μM): 81% | Average Melanoma growth (from the previous chart) (B16-F10 melanoma cells [5]; 40 μM): 50% | cell proliferation compared to the control (B16-F10 melanoma cells [5]; 40 μM (FIG. 14)): 50% | EC50 (B16-F10 melanoma cells [5]; Mus musculus, B16-F10, melanoma cells (FIG. 14), read-out: EC50 in inhibiting melanoma growth): ~40 µM | melanoma cell death (in words) (B16-F10 melanoma cells [5]; any of the tested concentrations): no cell death was observed | inhibition of melanoma cell growth / cell number (in words) (B16-F10 melanoma cells [5]; melanoma cells): decrease of melanin as well as the cell number | Growth (B16-F10 melanoma cells [5]; melanoma cells, 2 μM): 86% | Growth (B16-F10 melanoma cells [5]; melanoma cells, 10 μM): 88% and 92% and 101% and 69% | Growth (B16-F10 melanoma cells [5]; melanoma cells, 20 μM): 81% and 80% | Melanin (B16-F10 melanoma cells [6]; 2 μM): 99% | Melanin (B16-F10 melanoma cells [6]; 10 μM): 104% and 84% and 97% and 95% and 100% | Melanin (B16-F10 melanoma cells [6]; 20 μM): 101% and 92% | Melanin (B16-F10 melanoma cells [6]; 40 μM): 84% and 68% and 56% | melanin in B16-F10 cells (in words) (B16-F10 melanoma cells [6]; mouse cell line B16-F10): decrease of melanin | toxicity to normal melanocytes (in words) [7]: does not seem to cause high toxicity | inhibition of growth of normal melanocytes (in words) ([7]; 10 μM): did not show any inhibition | formation and recovery of melanoma (in words) [8]: inhibited the formation and recovery of melanoma; also recorded: inhibit both the formation of melanoma and the recovery of melanoma | mitotic index of melanoma cells (in words) (melanoma cells): significantly lower mitotic index | mitosis / mitotic index of melanocytes (in words) [9]: reduces mitosis | melanocyte apoptosis / cell death (in words) [10]: does not induce apoptosis; also recorded: no significant difference | amount of p-MAPK / MAPK activity (in words) (MAPK): significantly increase the MAPK activity; also recorded: increases the amount of p-MAPK | phosphorylated Akt (in words) (Akt): slight increase of phosphorylated Akt | MITF protein level (in words) (MITF [11]): distinguishably lower | MITF (mit-f) mRNA expression (in words) (MITF [12]): lower amount of MITF mRNA; also recorded: expressed at high level; also recorded: decreases the expression of mit-f gene | Pax3 expression (in words) (Pax3): reduces Pax3 expression | DCT expression (in words) [13]: decreased | tyrosinase expression (in words) (tyrosinase [14]): decreased | number of dct-expressing cells (in words) [15]: significantly lower than in the control | tyrosinase formation (in words) (tyrosinase [16]): not to inhibit tyrosinase formation | MEK activity (in words) (MEK): increasing MEK activity
